In general, pKi refers to −log10 of the Ki, conventionally taken in molar units. A high value points to a low Ki. A word on the solubility: it is how much of the substance goes into solution per volume.

Series [1] deals with T1, human PDE10 enzyme (Homo sapiens, UniProt Q9Y233).
T1 construct: made in house; host or cells: AD293 cells, transiently transfected; the supernatant (cytoplasmic fraction) of the sonicated lysate served as enzyme
As to the kind of experiment: PDE10 fluorescence polarization (IMAP FP) inhibition assay. The series is classed as biochemical. As to conditions: 'generally less than about'. The protocol: The activity of the compounds in accordance with the present invention as PDE10 inhibitors may be readily determined without undue experimentation using a fluorescence polarization (FP) methodology that is well known in the art (Huang, W., et al., J. Biomol Screen, 2002, 7: 215).
In a typical experiment the PDE10 inhibitory activity of compounds such as Compound A was determined in accordance with the following experimental method. PDE10A2 was amplified from human fetal brain cDNA (Clontech, Mountain View, CA) using a forward primer corresponding to nucleotides 56-77 of human PDE10A2 (Accession No. AF127480, Genbank Identifier 4894716), containing a Kozak consensus sequence, and a reverse primer corresponding to nucleotides 2406-2413 of human PDE10A2 (Accession No. AF127480, Genbank Identifier 4894716). Amplification with Easy-A polymerase (Stratagene, La Jolla, CA) was 95° C. for 2 minutes followed by thirty three cycles of 95° C. for 40 seconds, 55° C. for 30 seconds, and 72° C. for 2 minutes 48 seconds. Final extension was 72° C. for 7 minutes. […] The fluorescence polarization assay for cyclic nucleotide phosphodiesterases was performed using an IMAP® FP kit supplied by Molecular Devices, Sunnyvale, CA (product #R8139). […] 0% of inhibition is determined by using DMSO (1% final concentrations). […]
A general note: Fluorescence polarisation rises when a labelled molecule tumbles more slowly, as on binding a larger partner.

Series [2] in a line: Aqueous solubility (slurry in pH 7 buffer, UPLC). The series is classed as physicochemical. As to conditions: aqueous buffer, thermodynamic from solid; pH 7.4 in PBS buffer solution; read-out: Solubility. As for the experimental part:
Aqueous solubility of the compounds was measured by suspending, sonicating (30 minutes), and slurrying (2 hours, 1000 rpm) excess solid (typically 5-10 mg) in phosphate buffered saline at pH 7, or equivalent pH 7 buffer. The suspension was then sonicated again for 30 minutes and stirred again at 1000 rpm for at least 6-24 hours. Approximately 400 μL of sample was removed and placed into spin filters. Each sample was spun at 14K rpm for 10 minutes using a 0.45 μm PVDF spin filter. A portion of the filtrate was removed and diluted with 1:1 ACN:H2O. The resultant samples were analyzed using UPLC analysis. Retains of the solids were checked by XRPD to determine if the material was crystalline or amorphous. Solubility of Compound A was measured at 140 μg/mL at pH 7.4 in PBS buffer solution.

pKi: −log10 of the molar value. ≈ marks a conversion by molar mass, not a printed value. A value given as a limit tells only on which side of the number the result lay.

T1 sequence (Q9Y233 267-1055): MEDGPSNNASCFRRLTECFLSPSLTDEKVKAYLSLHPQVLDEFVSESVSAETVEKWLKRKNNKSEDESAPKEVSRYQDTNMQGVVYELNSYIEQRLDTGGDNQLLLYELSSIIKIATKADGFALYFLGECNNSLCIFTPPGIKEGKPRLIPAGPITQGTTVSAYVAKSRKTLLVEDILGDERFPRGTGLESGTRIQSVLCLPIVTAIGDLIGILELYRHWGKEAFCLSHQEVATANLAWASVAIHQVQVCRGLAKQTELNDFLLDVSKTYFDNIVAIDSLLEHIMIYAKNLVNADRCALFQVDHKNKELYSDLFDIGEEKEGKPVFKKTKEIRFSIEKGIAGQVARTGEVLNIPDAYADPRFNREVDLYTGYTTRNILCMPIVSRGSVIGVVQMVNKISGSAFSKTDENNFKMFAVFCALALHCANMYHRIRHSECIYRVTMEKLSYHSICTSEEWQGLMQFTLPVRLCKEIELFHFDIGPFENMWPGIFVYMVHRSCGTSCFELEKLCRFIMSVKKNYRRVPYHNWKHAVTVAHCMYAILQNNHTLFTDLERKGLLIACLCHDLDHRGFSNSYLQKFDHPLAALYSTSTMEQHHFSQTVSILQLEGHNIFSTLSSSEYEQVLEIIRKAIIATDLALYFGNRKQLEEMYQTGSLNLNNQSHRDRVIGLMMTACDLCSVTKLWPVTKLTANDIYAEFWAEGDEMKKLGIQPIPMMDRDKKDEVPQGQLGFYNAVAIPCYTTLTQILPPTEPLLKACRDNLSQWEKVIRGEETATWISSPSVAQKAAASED

In turn, `Cc1ccc([C@H]2C[C@@H]2COc2cc(NCc3nnc(C)s3)nc(C)n2)nc1` [Compound A, 2-methyl-N-((5-methyl-1,3,4-thiadiazol-2-yl)methyl)-6-(((1S,2S)-2-(5-methylpyridin-2-yl)cyclopropyl)methoxy)pyrimidin-4-amine, reference compound] gave a pKi in series [1] of over 6.00. Also, the solubility in series [2] was determined as 140 µg/mL (≈ 366 µM).

The record behind these values is patent US12215101B2, “Pro drugs of PDE10 compounds” (Merck Sharp & Dohme LLC, priority 2021, dated 2025).
